Reference: PubChem BioAssay AID330 (DTP/NCI, 2004)
“And” between values parts separate entries of the source, which are not always exact repeats. Equal entries are not always repeated. Toxic doses and inconclusive results are not listed. The calls were made as follows: active = survival T/C of 150% or more; inactive = T/C below 125% in these data.

System: P388 leukemia ip, CD2F1 mice, survival T/C
Test: NCI In Vivo Anticancer Drug Screen. Data for tumor model P388 Leukemia (intraperitoneal) in CD2F1 (CDF1) mice
Conditions: endpoint: median survival time, higher = longer survival
Summary of the method: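 Mice carrying the transplanted tumor received test compound or vehicle. Survival was recorded in each group, and the value is the treated-group measurement divided by that of the vehicle-treated control group.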

[1] = dose: 100.0 mg/kg/injection, schedule: Q01DX009 (ip), vehicle: saline with Tween-80
[2] = dose: 50.0 mg/kg/injection, schedule: Q01DX005 (ip), vehicle: saline with Tween-80
[3] = dose: 100.0 mg/kg/injection, schedule: Q01DX005 (ip), vehicle: saline with Tween-80
[4] = dose: 200.0 mg/kg/injection, schedule: Q01DX005 (ip), vehicle: saline with Tween-80
[5] = dose: 50.0 mg/kg/injection, schedule: Q01DX005 (ip), vehicle: saline
[6] = dose: 100.0 mg/kg/injection, schedule: Q01DX005 (ip), vehicle: Klucel (hydroxypropylcellulose) (HPC)
[7] = dose: 200.0 mg/kg/injection, schedule: Q01DX005 (ip), vehicle: Klucel (hydroxypropylcellulose) (HPC)

Measured: T/C

COc1cccc(CCl)c1
inactive: [1] 110 % of control and 118 % of control | dose: 200.0 mg/kg/injection, schedule: Q01DX009 (ip), vehicle: saline with Tween-80 117 % of control and 124 % of control

CCN(CC)CC.[CH-]1CCCCC1.[CH-]1CCCCC1.[CH3-].[Cl-].[I-].[Sn+4]
inactive: dose: 6.0 mg/kg/injection, schedule: Q01DX005 (ip), vehicle: saline with Tween-80 101 % of control | dose: 12.0 mg/kg/injection, schedule: Q01DX005 (ip), vehicle: saline with Tween-80 102 % of control

COc1ccc(C(C)c2cc3c(cc2OC(C)=O)OCO3)cc1 (centres undefined)
inactive: [2] 100 % of control | [3] 87 % of control | [4] 93 % of control

CNC(=O)OCc1cn(-c2ccc(Cl)c(Cl)c2)nc1COC(=O)NC
inactive: dose: 0.05 mg/kg/injection, schedule: Q01DX009 (ip), vehicle: distilled water + Tween-80 103 % of control | dose: 0.1 mg/kg/injection, schedule: Q01DX009 (ip), vehicle: distilled water + Tween-80 86 % of control | dose: 0.2 mg/kg/injection, schedule: Q01DX009 (ip), vehicle: distilled water + Tween-80 94 % of control | dose: 0.4 mg/kg/injection, schedule: Q01DX009 (ip), vehicle: distilled water + Tween-80 99 % of control | dose: 3.12 mg/kg/injection, schedule: Q01DX009 (ip), vehicle: distilled water + Tween-80 88 % of control | dose: 25.0 mg/kg/injection, schedule: Q01DX009 (ip), vehicle: distilled water + Tween-80 89 % of control | dose: 50.0 mg/kg/injection, schedule: Q01DX009 (ip), vehicle: distilled water + Tween-80 92 % of control | dose: 100.0 mg/kg/injection, schedule: Q01DX009 (ip), vehicle: distilled water + Tween-80 90 % of control

O=C1C2CCCCC2C1(Cl)Cl (centres undefined)
inactive: dose: 25.0 mg/kg/injection, schedule: Q01DX009 (ip), vehicle: saline with Tween-80 103 % of control | dose: 50.0 mg/kg/injection, schedule: Q01DX009 (ip), vehicle: saline with Tween-80 99 % of control | [1] 118 % of control

c1cn[nH]c1
inactive: dose: 25.0 mg/kg/injection, schedule: Q01DX009 (ip), vehicle: saline 93 % of control | dose: 50.0 mg/kg/injection, schedule: Q01DX009 (ip), vehicle: saline 101 % of control | dose: 100.0 mg/kg/injection, schedule: Q01DX009 (ip), vehicle: saline 111 % of control

NC(=O)CCSC1=CC(=O)c2ccccc2C1=O
inactive: dose: 3.13 mg/kg/injection, schedule: Q04DX003 (ip), vehicle: saline with Tween-80 103 % of control | dose: 6.25 mg/kg/injection, schedule: Q04DX003 (ip), vehicle: saline with Tween-80 110 % of control | dose: 12.5 mg/kg/injection, schedule: Q04DX003 (ip), vehicle: saline with Tween-80 103 % of control and 110 % of control

CCOC(=O)c1n[nH]c(C)c1CC(N)c1ccccc1 (centres undefined)
inactive: dose: 12.5 mg/kg/injection, schedule: Q01DX005 (ip), vehicle: saline with Tween-80 100 % of control | dose: 25.0 mg/kg/injection, schedule: Q01DX005 (ip), vehicle: saline with Tween-80 96 % of control

c1ccc(-c2nnc3c4[nH]c5ccccc5c4cnn23)cc1
inactive: dose: 100.0 mg/kg/injection, schedule: Q01DX001 (ip), vehicle: Klucel (hydroxypropylcellulose) (HPC) 105 % of control | dose: 200.0 mg/kg/injection, schedule: Q01DX001 (ip), vehicle: Klucel (hydroxypropylcellulose) (HPC) 105 % of control | dose: 400.0 mg/kg/injection, schedule: Q01DX001 (ip), vehicle: Klucel (hydroxypropylcellulose) (HPC) 99 % of control

COc1ccc(C(=O)CCN(C)C)c2ccccc12
inactive: [5] 102 % of control | dose: 100.0 mg/kg/injection, schedule: Q01DX005 (ip), vehicle: saline 100 % of control | dose: 200.0 mg/kg/injection, schedule: Q01DX005 (ip), vehicle: saline 93 % of control

c1ccc2c(c1)C1CCC2[n+]2ccccc21 (centres undefined)
inactive: dose: 6.25 mg/kg/injection, schedule: Q01DX005 (ip), vehicle: Klucel (hydroxypropylcellulose) (HPC) 108 % of control | dose: 12.5 mg/kg/injection, schedule: Q01DX005 (ip), vehicle: Klucel (hydroxypropylcellulose) (HPC) 106 % of control | dose: 25.0 mg/kg/injection, schedule: Q01DX005 (ip), vehicle: Klucel (hydroxypropylcellulose) (HPC) 110 % of control

O=C(/C=C/c1ccccc1)OCC12OC1C(O)C1C=COC(OC3OC(CO)C(O)C(O)C3O)C12 (centres undefined)
inactive: dose: 4.38 mg/kg/injection, schedule: Q01DX005 (ip), vehicle: Klucel (hydroxypropylcellulose) (HPC) 96 % of control | dose: 8.75 mg/kg/injection, schedule: Q01DX005 (ip), vehicle: Klucel (hydroxypropylcellulose) (HPC) 94 % of control | dose: 17.5 mg/kg/injection, schedule: Q01DX005 (ip), vehicle: Klucel (hydroxypropylcellulose) (HPC) 97 % of control | dose: 35.0 mg/kg/injection, schedule: Q01DX005 (ip), vehicle: Klucel (hydroxypropylcellulose) (HPC) 97 % of control | dose: 70.0 mg/kg/injection, schedule: Q01DX005 (ip), vehicle: Klucel (hydroxypropylcellulose) (HPC) 97 % of control | [6] 95 % of control | [7] 103 % of control

Nc1ccc2c(SCCCCCCCCSc3c4ccccc4nc4cc(N)ccc34)c3ccccc3nc2c1
inactive: dose: 60.0 mg/kg/injection, schedule: Q01DX005 (ip), vehicle: saline with Tween-80 106 % of control | dose: 120.0 mg/kg/injection, schedule: Q01DX005 (ip), vehicle: saline with Tween-80 106 % of control

CC1C(O)=C(c2ccccc2)P(=O)(Cc2ccccc2)C1C (centres undefined)
inactive: dose: 60.0 mg/kg/injection, schedule: Q01DX005 (ip), vehicle: saline 101 % of control | dose: 120.0 mg/kg/injection, schedule: Q01DX005 (ip), vehicle: saline 100 % of control | dose: 240.0 mg/kg/injection, schedule: Q01DX005 (ip), vehicle: saline 93 % of control

Cn1cc(O)c(=O)n(C)c1=O
inactive: dose: 100.0 mg/kg/injection, schedule: Q04DX003 (ip), vehicle: saline with Tween-80 99 % of control | dose: 200.0 mg/kg/injection, schedule: Q04DX003 (ip), vehicle: saline with Tween-80 105 % of control | dose: 400.0 mg/kg/injection, schedule: Q04DX003 (ip), vehicle: saline with Tween-80 100 % of control

CC(=O)Oc1cc2c3c(c1)-c1c(ccc(OC(C)=O)c1OC(C)=O)CC3NCC2 (centres undefined)
inactive: dose: 3.13 mg/kg/injection, schedule: Q04DX003 (ip), vehicle: DMSO 101 % of control | dose: 6.25 mg/kg/injection, schedule: Q04DX003 (ip), vehicle: DMSO 101 % of control | dose: 12.5 mg/kg/injection, schedule: Q04DX003 (ip), vehicle: DMSO 103 % of control | dose: 25.0 mg/kg/injection, schedule: Q04DX003 (ip), vehicle: DMSO 108 % of control | dose: 50.0 mg/kg/injection, schedule: Q04DX003 (ip), vehicle: DMSO 108 % of control | dose: 100.0 mg/kg/injection, schedule: Q04DX003 (ip), vehicle: DMSO 99 % of control

COc1cc(CC2c3cc(OC)c(OC)cc3CC[N+]2(C)C)c(Oc2cc(CC3c4cc(OC)c(OC)cc4CC[N+]3(C)C)ccc2OC)cc1OC (centres undefined)
inactive: dose: 1.56 mg/kg/injection, schedule: Q04DX003 (ip), vehicle: water 109 % of control | dose: 3.13 mg/kg/injection, schedule: Q04DX003 (ip), vehicle: water 103 % of control

NC(Cc1ccccc1)P(=O)(O)O (centres undefined)
inactive: dose: 25.0 mg/kg/injection, schedule: Q01DX009 (ip), vehicle: suspension in saline 97 % of control | dose: 50.0 mg/kg/injection, schedule: Q01DX009 (ip), vehicle: suspension in saline 99 % of control | dose: 100.0 mg/kg/injection, schedule: Q01DX009 (ip), vehicle: suspension in saline 99 % of control | dose: 200.0 mg/kg/injection, schedule: Q01DX009 (ip), vehicle: suspension in saline 97 % of control

Nc1ccc2ccccc2c1-c1cccc2ccccc12
inactive: [2] 96 % of control | [3] 96 % of control | dose: 100.0 mg/kg/injection, schedule: Q04DX002 (ip), vehicle: saline with Tween-80 102 % of control | [4] 102 % of control | dose: 200.0 mg/kg/injection, schedule: Q04DX002 (ip), vehicle: saline with Tween-80 102 % of control | dose: 400.0 mg/kg/injection, schedule: Q04DX002 (ip), vehicle: saline with Tween-80 92 % of control

NC(=O)C(Cc1ccc(O)cc1)NC(=O)OCc1ccccc1 (centres undefined)
inactive: dose: 50.0 mg/kg/injection, schedule: Q01DX005 (ip), vehicle: Klucel (hydroxypropylcellulose) (HPC) 97 % of control | [6] 92 % of control | [7] 97 % of control

O=P(O)(O)OCC1(O)OCC(O)C(O)C1O (centres undefined)
inactive: dose: 12.5 mg/kg/injection, schedule: Q01DX005 (ip), vehicle: saline 106 % of control | dose: 25.0 mg/kg/injection, schedule: Q01DX005 (ip), vehicle: saline 104 % of control | [5] 99 % of control and 103 % of control
